{"source": "patent US20220380829A1", "about": "“Method of Diagonosizing Pathogens and their Antimicrobial Susceptibility” (HANGZHOU DIAN MEDICAL LABORATORY CO., LTD., priority 2019, published 2022)", "type_in_all_cases": "cell-based", "key": {"[1]": {"system": "Candida tropicalis", "experiment": "Broth microdilution (M27-A3, M27-S4), gold standard culture-based AST"}, "[2]": {"system": "Candida albicans", "experiment": "Broth microdilution (M27-A3, M27-S4), gold standard culture-based AST", "settings": "for Results by broth microdilution method: R: number of resistant among 12 blinds; for Results by broth microdilution method: S: number of susceptible among 12 blinds", "procedure": "Step 1. Sample collection and drug susceptibility verification: 120 clinical Candida albicans isolates were collected from 31 hospitals across china in a period between September 2015 and January 2019. All isolates were tested for drug susceptibility using broth microdilution method following the M27-A3 and M27-S4 guidelines of NCCLS, and the results were used as the gold standard (culture-based AST)."}, "[3]": {"system": "Klebsiella pneumoniae", "experiment": "VITEK2 Compact AST (AST-GN13/GN334 cards), gold standard culture-based AST", "settings": "for Resistance profiles by VITEK2: R: number of resistant among 24 blinds; for Resistance profiles by VITEK2: S: number of susceptible among 24 blinds", "from_the_text": "Step 1. Sample collection and drug susceptibility verification: 240 clinical Klebsiella pneumoniae isolates were collected from 23 hospitals across china in a period between January 2018 and March 2019."}, "[4]": {"system": "Staphylococcus aureus", "experiment": "VITEK2 Compact AST (AST-P639 card), gold standard culture-based AST", "procedure": "Step 1. Sample collection and drug susceptibility verification: 160 clinical Staphylococcus aureus isolates were collected from 20 hospitals across china in a period between June 2018 and June 2019. All isolates were tested for drug susceptibility using bioMérieux Vitek2 Compact System and AST-P639 card, and specifically, and the results were used as the gold standard (culture-based AST)."}}, "note": "Starred links: 1 amine or outer side, 2 acyl side, 3 side chain; linkers in the order of their positions; H or OH if unused. Positions of bridges follow the written chain, without caps; N, C: chain ends. Non-standard residues stand in square brackets, D forms with d. Residues, ends and D or L forms follow the SMILES beside them. *: point of attachment. hTyr(3S-OH,4S-OH,3'-OSO3H) = N[C@H](C(=O)O)[C@H](O)[C@@H](O)c1ccc(O)c(OS(=O)(=O)O)c1; Orn(4R-OH,5R-OH) = O=C([C@H](C[C@@H](O)[C@@H](O)N[*:3])N[*:1])[*:2]; Pro(3S-OH,4S-Me) = C[C@H]1CN[C@H](C(=O)O)[C@H]1O; X1 = CCCCCOc1ccc(-c2cc(-c3ccc(C(=O)*)cc3)no2)cc1; Gln(3R-OH) = NC(=O)C[C@@H](O)[C@H](N)C(=O)O; Hyp = O=C(O)[C@@H]1C[C@@H](O)CN1", "data": [{"compound": "CCC(C)n1ncn(-c2ccc(N3CCN(c4ccc(OCC5COC(Cn6cncn6)(c6ccc(Cl)cc6Cl)O5)cc4)CC3)cc2)c1=O", "note": "(stereo not shown) [ITR]", "values": [{"measurement": "Resistance profiles by broth microdilution (the gold standard)", "setting": "[1]; blind-1", "result": "R"}, {"measurement": "Resistance profiles by broth microdilution (the gold standard)", "setting": "[1]; blind-2", "result": "S"}, {"measurement": "Resistance profiles by broth microdilution (the gold standard)", "setting": "[1]; blind-3", "result": "R"}, {"measurement": "Resistance profiles by broth microdilution (the gold standard)", "setting": "[1]; blind-4", "result": "R"}, {"measurement": "Resistance profiles by broth microdilution (the gold standard)", "setting": "[1]; blind-5", "result": "S"}, {"measurement": "Resistance profiles by broth microdilution (the gold standard)", "setting": "[1]; blind-6", "result": "S"}]}, {"compound": "C[C@@H]1[C@H](O)[C@@H](C)/C=C/C=C/C=C/C=C/C=C/C=C/C=C/[C@H](O[C@@H]2O[C@H](C)[C@@H](O)[C@H](N)[C@@H]2O)C[C@@H]2O[C@](O)(C[C@@H](O)C[C@@H](O)[C@H](O)CC[C@@H](O)C[C@@H](O)CC(=O)O[C@H]1C)C[C@H](O)[C@H]2C(=O)O", "note": "[Amphotericin B]", "values": [{"measurement": "Results by broth microdilution method: R", "setting": "[2]", "result": 0}, {"measurement": "Results by broth microdilution method: S", "setting": "[2]", "result": 12}]}, {"compound": "CCCCCOc1ccc(-c2cc(-c3ccc(C(=O)N[C@H]4C[C@@H](O)[C@@H](O)NC(=O)[C@@H]5[C@@H](O)[C@@H](C)CN5C(=O)[C@H]([C@H](O)CC(N)=O)NC(=O)[C@H]([C@H](O)[C@@H](O)c5ccc(O)c(OS(=O)(=O)O)c5)NC(=O)[C@@H]5C[C@@H](O)CN5C(=O)[C@H]([C@@H](C)O)NC4=O)cc3)no2)cc1", "note": "[Micafungin] (X1-[Orn(4R-OH,5R-OH)]T[Hyp][hTyr(3S-OH,4S-OH,3'-OSO3H)][Gln(3R-OH)][Pro(3S-OH,4S-Me)]; lactam 1-C)", "values": [{"measurement": "Results by broth microdilution method: R", "setting": "[2]", "result": 0}, {"measurement": "Results by broth microdilution method: S", "setting": "[2]", "result": 12}]}, {"compound": "Nc1nc(=O)[nH]cc1F", "note": "[5-Fluorocytosine]", "values": [{"measurement": "Results by broth microdilution method: R", "setting": "[2]", "result": 4}, {"measurement": "Results by broth microdilution method: S", "setting": "[2]", "result": 8}]}, {"compound": "Amoxicillin-clavulanate", "values": [{"measurement": "Resistance profiles by VITEK2: R", "setting": "[3]", "result": 16}, {"measurement": "Resistance profiles by VITEK2: S", "setting": "[3]", "result": 8}]}, {"compound": "CCC(C)n1ncn(-c2ccc(N3CCN(c4ccc(OCC5COC(Cn6cncn6)(c6ccc(Cl)cc6Cl)O5)cc4)CC3)cc2)c1=O", "note": "(stereo not shown) [Itraconazole]", "values": [{"measurement": "Results by broth microdilution method: R", "setting": "[2]", "result": 2}, {"measurement": "Results by broth microdilution method: S", "setting": "[2]", "result": 10}]}, {"compound": "Piperacillin-tazobactam", "values": [{"measurement": "Resistance profiles by VITEK2: R", "setting": "[3]", "result": 13}, {"measurement": "Resistance profiles by VITEK2: S", "setting": "[3]", "result": 11}]}, {"compound": "Teicoplanin", "values": [{"measurement": "Resistance profiles by VITEK2: R", "setting": "[4]; number of resistant among 22 blinds", "result": 0}, {"measurement": "Resistance profiles by VITEK2: S", "setting": "[4]; number of susceptible among 22 blinds", "result": 22}]}, {"compound": "OC(Cn1cncn1)(Cn1cncn1)c1ccc(F)cc1F", "note": "[Fluconazole]", "values": [{"measurement": "Results by broth microdilution method: R", "setting": "[2]", "result": 2}, {"measurement": "Results by broth microdilution method: S", "setting": "[2]", "result": 10}]}]}
